The values that follow come from US9163021B2, “Pyrrolo[3,2-c]pyridine tropomyosin-related kinase inhibitors” (Pfizer Limited, priority 2012, dated 2015).

This test addresses TRKA (Homo sapiens (Human), UniProt P04629). The test is described as follows: Isolated TRK enzyme assay (HTRF KinEASE-TK), PV3144 TrkA enzyme assay. The test is classed as biochemical. Conditions: arithmetic mean where more than one reading. Put shortly:
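Kinase (recombinant His-TrkA cytoplasmic domain, ATP-preactivated 20 min) met compound 20 min, then biotinylated TK substrate (1 µM final) with Mg2+/DTT buffer; HTRF detection.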

Sequence of TRKA (P04629 441-796): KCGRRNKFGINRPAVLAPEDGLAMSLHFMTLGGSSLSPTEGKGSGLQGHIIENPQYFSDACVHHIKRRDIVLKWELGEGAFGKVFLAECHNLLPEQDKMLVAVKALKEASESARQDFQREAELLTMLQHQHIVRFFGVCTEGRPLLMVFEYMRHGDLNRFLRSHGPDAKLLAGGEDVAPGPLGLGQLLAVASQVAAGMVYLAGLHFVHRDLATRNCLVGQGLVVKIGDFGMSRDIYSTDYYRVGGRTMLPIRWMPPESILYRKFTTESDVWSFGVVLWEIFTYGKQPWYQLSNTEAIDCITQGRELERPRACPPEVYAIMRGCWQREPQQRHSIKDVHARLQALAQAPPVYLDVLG

Broadly, the IC50 is the concentration needed to halve the response being measured. The low end stands for higher potency, the high end for lower potency. As to `CC(C)n1cc(C(=O)c2cc(NC(=O)Cn3cc(C(F)(F)F)nn3)ccn2)c2cnccc21` [Example 53, N-(2-{[1-(propan-2-yl)-1H-pyrrolo[3,2-c]pyridin-3-yl]carbonyl}pyridin-4-yl)-2-[4-(trifluoromethyl)-1H-1,2,3-triazol-1-yl]acetamide], the IC50 is 110 nM.

Molecule `CC(C)n1cc(C(=O)c2cncc(NC(=O)Cn3ccc(C4CC4)n3)c2)c2cncc(F)c21` [Example 90, 2-(3-cyclopropyl-1H-pyrazol-1-yl)-N-(5-{[7-fluoro-1-(propan-2-yl)-1H-pyrrolo[3,2-c]pyridin-3-yl]carbonyl}pyridin-3-yl)acetamide] yielded an IC50 of 19.6 nM. In the case of `CC(CO)n1cc(C(=O)c2cncc(NC(=O)Cn3cc(C(F)(F)F)nn3)c2)c2cnccc21` (single isomer, unassigned) [Example 69, N-(5-{[1-(1-hydroxypropan-2-yl)-1H-pyrrolo[3,2-c]pyridin-3-yl]carbonyl}pyridin-3-yl)-2-[4-(trifluoromethyl)-1H-1,2,3-triazol-1-yl]acetamide], the half-maximal inhibitory concentration (IC50) was 77.6 nM. The result for `CC(C)n1cc(C(=O)c2cc(NC(=O)Cc3cnn(C4CC4)c3C(F)(F)F)ccn2)c2cnccc21` [Example 56, 2-[1-cyclopropyl-5-(trifluoromethyl)-1H-pyrazol-4-yl]-N-(2-{[1-(propan-2-yl)-1H-pyrrolo[3,2-c]pyridin-3-yl]carbonyl}pyridin-4-yl)acetamide] reads 177 nM; that for `CC(C)n1cc(C(=O)c2cncc(NC(=O)Cc3ccccc3Cl)c2)c2cnccc21` [Example 100, 2-(2-chlorophenyl)-N-(5-{[1-(propan-2-yl)-1H-pyrrolo[3,2-c]pyridin-3-yl]carbonyl}pyridin-3-yl)acetamide], 2370 nM; that for `Cc1ccnn1CC(=O)Nc1cc(C(=O)c2cn(CCO)c3ccncc23)ccn1` [Example 155, N-(4-{[1-(2-hydroxyethyl)-1H-pyrrolo[3,2-c]pyridin-3-yl]carbonyl}pyridin-2-yl)-2-(5-methyl-1H-pyrazol-1-yl)acetamide], 2390 nM. In turn, `CC(CO)n1cc(C(=O)c2cncc(NC(=O)Cn3cc(C(F)(F)F)cn3)c2)c2cncc(F)c21` (single isomer, unassigned) [Example 219, N-(5-{[7-fluoro-1-(1-hydroxypropan-2-yl)-1H-pyrrolo[3,2-c]pyridin-3-yl]carbonyl}pyridin-3-yl)-2-[4-(trifluoromethyl)-1H-pyrazol-1-yl]acetamide] showed a concentration for half-maximal inhibition (IC50) of 15.2 nM. Molecule `CC(C)n1cc(C(=O)c2cncc(NC(=O)Cc3ncccn3)c2)c2cnccc21` [Example 119, N-(5-{[1-(propan-2-yl)-1H-pyrrolo[3,2-c]pyridin-3-yl]carbonyl}pyridin-3-yl)-2-(pyrimidin-2-yl)acetamide] yielded an IC50 of 4900 nM.

In turn, `Cc1cn(CC(=O)Nc2cc(C(=O)c3cn(C(C)C)c4ccncc34)ccn2)nn1` [Example 114, 2-(4-methyl-1H-1,2,3-triazol-1-yl)-N-(4-{[1-(propan-2-yl)-1H-pyrrolo[3,2-c]pyridin-3-yl]carbonyl}pyridin-2-yl)acetamide] had an IC50 of 289 nM. With `O=C(Cc1coc(C2CC2)n1)Nc1cc(C(=O)c2cn(C3COC3)c3ccncc23)ccn1` [Example 197, 2-(2-cyclopropyl-1,3-oxazol-4-yl)-N-(4-{[1-(oxetan-3-yl)-1H-pyrrolo[3,2-c]pyridin-3-yl]carbonyl}pyridin-2-yl)acetamide], the IC50 worked out at 525 nM. Take `CC(C)n1cc(C(=O)c2ccnc(NC(=O)Cn3nccn3)c2)c2cnccc21` [Example 190, N-(4-{[1-(propan-2-yl)-1H-pyrrolo[3,2-c]pyridin-3-yl]carbonyl}pyridin-2-yl)-2-(2H-1,2,3-triazol-2-yl)acetamide]: the IC50 was 775 nM. `Cc1nccn1CC(=O)Nc1cncc(C(=O)c2cn(C(C)C)c3ccncc23)c1` [Example 118, 2-(2-methyl-1H-imidazol-1-yl)-N-(5-{[1-(propan-2-yl)-1H-pyrrolo[3,2-c]pyridin-3-yl]carbonyl}pyridin-3-yl)acetamide]: the IC50 was found to be 9150 nM. `CC(CO)n1cc(C(=O)c2cncc(NC(=O)Cc3ccc(C#N)cc3)c2)c2cnccc21` (single isomer, unassigned) [Example 72, 2-(4-cyanophenyl)-N-(5-{[1-(1-hydroxypropan-2-yl)-1H-pyrrolo[3,2-c]pyridin-3-yl]carbonyl}pyridin-3-yl)acetamide] gave an IC50 of 125 nM. The result for `O=C(Cc1ccc(F)cc1)Nc1cc(C(=O)c2cn(C3COC3)c3ccncc23)ccn1` [Example 204, 2-(4-fluorophenyl)-N-(4-{[1-(oxetan-3-yl)-1H-pyrrolo[3,2-c]pyridin-3-yl]carbonyl}pyridin-2-yl)acetamide] reads 227 nM. For the molecule `CC(C)(CO)n1cc(C(=O)c2cncc(NC(=O)Cn3cc(C(F)(F)F)nn3)c2)c2cnccc21` [Example 13, N-(5-{[1-(1-hydroxy-2-methylpropan-2-yl)-1H-pyrrolo[3,2-c]pyridin-3-yl]carbonyl}pyridin-3-yl)-2-[4-(trifluoromethyl)-1H-1,2,3-triazol-1-yl]acetamide], the midpoint of inhibition, the IC50, lay at 9.86 nM.

Turning to `Cc1ccnn1CC(=O)Nc1cncc(C(=O)c2cn(C(C)C)c3ccncc23)c1` [Example 135, 2-(5-methyl-1H-pyrazol-1-yl)-N-(5-{[1-(propan-2-yl)-1H-pyrrolo[3,2-c]pyridin-3-yl]carbonyl}pyridin-3-yl)acetamide], 2600 nM corresponded to half-maximal inhibition (IC50).

As to `CC(C)n1cc(C(=O)c2ccnc(NC(=O)c3cccc(OC(F)(F)F)c3)c2)c2cnccc21` [Example 173, N-(4-{[1-(propan-2-yl)-1H-pyrrolo[3,2-c]pyridin-3-yl]carbonyl}pyridin-2-yl)-3-(trifluoromethoxy)-benzamide], inhibition was half-maximal at 3.85 nM (IC50). `CC(C)n1cc(C(=O)c2ccnc(NC(=O)Cc3ccc(C(F)(F)F)c(F)c3)c2)c2cnccc21` [Example 172, 2-(3-fluoro-4-(trifluoromethyl)phenyl]-N-(4-{[1-(propan-2-yl)-1H-pyrrolo[3,2-c]pyridin-3-yl]carbonyl}-pyridin-2-yl)acetamide]: the IC50 turned out to be 8.49 nM. In the case of `CC(C)(CO)n1cc(C(=O)c2cncc(NC(=O)Cn3cc(C(F)(F)F)nn3)c2)c2cncc(F)c21` [Example 94, N-(5-{[7-fluoro-1-(1-hydroxy-2-methylpropan-2-yl)-1H-pyrrolo[3,2-c]pyridin-3-yl]carbonyl}pyridin-3-yl)-2-[4-(trifluoromethyl)-1H-1,2,3-triazol-1-yl]acetamide], 20 nM corresponded to half-maximal inhibition (IC50). The molecule `CC(CO)n1cc(C(=O)c2cncc(NC(=O)Cc3ccc(Cl)cc3)c2)c2cncc(F)c21` (single isomer, unassigned) [Example 223, 2-(4-chlorophenyl)-N-(5-{[7-fluoro-1-(1-hydroxypropan-2-yl)-1H-pyrrolo[3,2-c]pyridin-3-yl]carbonyl}pyridin-3-yl)acetamide] displayed an IC50 of 27.8 nM. For `CC(C)n1cc(C(=O)c2ccnc(NC(=O)Cc3ccc(F)cc3F)c2)c2cnccc21` [Example 106, 2-(2,4-difluorophenyl)-N-(4-{[1-(propan-2-yl)-1H-pyrrolo[3,2-c]pyridin-3-yl]carbonyl}pyridin-2-yl)acetamide], the IC50 was found to be 17.9 nM. Molecule `Cc1oc(C2CC2)nc1CC(=O)Nc1cncc(C(=O)c2cn(C(C)C)c3ccncc23)c1` [Example 19, 2-(2-cyclopropyl-5-methyl-1,3-oxazol-4-yl)-N-(5-{[1-(propan-2-yl)-1H-pyrrolo[3,2-c]pyridin-3-yl]carbonyl}pyridin-3-yl)acetamide] gave an IC50 of 26.4 nM. The molecule `CC(CO)n1cc(C(=O)c2cncc(NC(=O)Cc3ccc(C(F)(F)F)cc3)c2)c2cncc(F)c21` (single isomer, unassigned) [Example 224, N-(5-{[7-fluoro-1-(1-hydroxypropan-2-yl)-1H-pyrrolo[3,2-c]pyridin-3-yl]carbonyl}pyridin-3-yl)-2-[4-(trifluoromethyl)phenyl]acetamide] showed an IC50 of 15.4 nM. Take `O=C(Cc1ccc(F)cc1F)Nc1cc(C(=O)c2cn(C3COC3)c3ccncc23)ccn1` [Example 198, 2-(2,4-difluorophenyl)-N-(4-{[1-(oxetan-3-yl)-1H-pyrrolo[3,2-c]pyridin-3-yl]carbonyl}pyridin-2-yl)acetamide]: half-maximal inhibition (IC50) was put at 105 nM. Next, “N-(5-{[7-fluoro-1-(1-hydroxypropan-2-yl)-1H-pyrrolo[3,2-c]pyridin-3-yl]carbonyl}pyridin-3-yl)-2-[4-(trifluoromethyl)-1H-1,2,3-triazol-1-yl]acetamide [Example 214]”: 93.1 nM; `Cc1noc(C)c1CC(=O)Nc1cc(C(=O)c2cn(C(C)C)c3ccncc23)ccn1` [Example 160, 2-(3,5-dimethyl-1,2-oxazol-4-yl)-N-(4-{[1-(propan-2-yl)-1H-pyrrolo[3,2-c]pyridin-3-yl]carbonyl}pyridin-2-yl)acetamide]: 8990 nM. In the case of `CC(C)n1cc(C(=O)c2ccnc(NC(=O)Cc3ccc(F)cc3)c2)c2cnccc21` [Example 186, 2(4-fluorophenyl)-N-(4-{[1-(propan-2-yl)-1H-pyrrolo[3,2-c]pyridin-3-yl]carbonyl}pyridin-2-yl)acetamide], the IC50 came to 13.3 nM.

In turn, `CC(CO)n1cc(C(=O)c2cncc(NC(=O)Cn3ccc(C(F)(F)F)n3)c2)c2cnccc21` (stereo not drawn) [Example 60, N-(5-{[1-(1-hydroxypropan-2-yl)-1H-pyrrolo[3,2-c]pyridin-3-yl]carbonyl}pyridin-3-yl)-2-[3-(trifluoromethyl)-1H-pyrazol-1-yl]acetamide] showed an IC50 of 44.7 nM. The result for `CC(C)n1cc(C(=O)c2cncc(NC(=O)Cn3cc(C4CC4)nn3)c2)c2cnccc21` [Example 51, 2-(4-cyclopropyl-1H-1,2,3-triazol-1-yl)-N-(5-{[1-(propan-2-yl)-1H-pyrrolo[3,2-c]pyridin-3-yl]carbonyl}pyridin-3-yl)acetamide] reads 68.2 nM; that for `CC(C)n1cc(C(=O)c2cncc(NC(=O)Cc3ccc(Cl)cn3)c2)c2cnccc21` [Example 22, 2-(5-chloropyridin-2-yl)-N-(5-{[1-(propan-2-yl)-1H-pyrrolo[3,2-c]pyridin-3-yl]carbonyl}pyridin-3-yl)acetamide], 9.64 nM.
